From patent US8937089B2, “Synergistic mixtures of anthranilamide invertebrate pest control agents” (priority 2004, dated 2015)

Key:
Test in all cases: whole plant or invertebrate
Format in all cases: in vivo
[1] = system: green peach aphid (Myzus persicae Sulzer); conditions: Green Peach Aphid
Protocol: (§1) Test compounds were formulated using a solution containing 10% acetone, 90% water and 300 ppm X-77® Spreader Lo-Foam Formula non-ionic surfactant containing alkylarylpolyoxyethylene, free fatty acids, glycols and 2-propanol (Loveland Industries, Inc.) to provide the desired concentration in ppm. Formulated test solutions were then applied in 1 mL volumes through a SUJ2 atomizer nozzle with 1/8 JJ custom body (Spraying Systems Co.) positioned 1.27 cm (0.5 inches) above the top of each test unit.
(§2) For evaluating control of green peach aphid (Myzus persicae Sulzer) through contact and/or systemic means, each test unit consisted of a small open container with a 12- to 15-day-old radish plant inside. This was pre-infested by placing on a leaf of the test plant 30 to 40 aphids on a piece of leaf excised from a culture plant (cut-leaf method). The larvae moved onto the test plant as the leaf piece desiccated. After pre-infestation, the soil of the test unit was covered with a layer of sand.
(§3) Test compounds were formulated and sprayed as described in Test A, replicated three times. After spraying of the formulated test compound, each test unit was allowed to dry for 1 hour and then a black, screened cap was placed on top. The test units were held for 6 days in a growth chamber at 19-21° C. and 50-70% relative humidity.

[2] = system: cotton melon aphid (Aphis gossypii Glover)
Protocol: as §1
as §2, with “cotton melon” for “green peach”, “(Aphis gossypii Glover)” for “(Myzus persicae Sulzer)”, “6-” for “12-”, “7-day-old cotton” for “15-day-old radish”
as §3, with “described for” for “described in”, “Test A. The applications were” for “Test A,”, “test compounds,” for “test compound,”

[3] = system: silverleaf whitefly (Bemisia argentifolii Bellows and Perring); conditions: Table 2B
From the text: For evaluating control of silverleaf whitefly (Bemisia argentifolii Bellows and Perring) through contact and/or systemic means, each test unit consisted of a small open container with a 12- to 14-day-old cotton plant inside. This was pre-infested by placing test units into cages infested with adult whiteflies so that oviposition on the cotton leaves could occur. The adults were removed from the plants with an air-blast nozzle, and the test units were capped. The test units were then stored 2 to 3 days before spraying.
as §1
The results for all experimental compositions in this test were replicated three times. After spraying of the formulated test composition, each test unit was allowed to dry for 1 hour and the cap removed. The test units were held for 13 days in a growth chamber at 28° C. and 50-70% relative humidity.

[4] = system: western flower thrip (Frankliniella occidentalis Pergande); conditions: single compound, spray, 7 days
Protocol: as §1
For evaluating control of the western flower thrip (Frankliniella occidentalis Pergande) through contact and/or systemic means, each test unit consisted of a small open container with a 5- to 7-day-old bean (var. Soleil) plant inside.
Test solutions were formulated and sprayed with 3 replications as described for Test A. After spraying, the test units were allowed to dry for 1 hour, 22 to 27 adult thrips were added to each unit and then a black, screened cap was placed on top. The test units were held for 7 days at 25° C. and 45-55% relative humidity.

[5] = system: corn planthopper (Peregrines maidis); conditions: Corn Plant Hopper
Protocol: as §1
For evaluating control of corn planthopper (Peregrines maidis) through contact and/or systemic means, each test unit consisted of a small open cylindrical container with a 3- to 4-day-old corn (maize) plant (spike) inside. White sand was added to the top of the soil prior to application. Test compounds were formulated and sprayed with 3 replications as described for Test A. After spraying, the test units were allowed to dry for 1 hour before they were post-infested with 10 to 20 corn planthoppers (18- to 20-day-old nymphs) by sprinkling them onto the sand with a salt shaker. A black, screened cap was placed on the top of each container. The test units were held for 6 days in a growth chamber at 19-21° C. and 50-70% relative humidity.

[6] = system: potato leafhopper (Empoasca fabae Harris); conditions: alone
Protocol: as §1
[…] White sand was added to the top of the soil, and one of the primary leaves was excised prior to application. Test compounds were formulated and sprayed with 3 replications as described for Test A. After spraying, the test units were allowed to dry for 1 hour before they were infested with 5 potato leafhoppers (18- to 21-day-old adults). A black, screened cap was placed on the top of each container. The test units were held for 6 days in a growth chamber at 19-21° C. and 50-70% relative humidity.

Nc1nc(N)nc(NC2CC2)n1 [Cyromazine]
mortality at 10 ppm ([1]; Myzus persicae, in Raphanus sativus, rate 10 ppm, read-out: % mortality (obs)): 24%
mortality at 100 ppm ([1]; Myzus persicae, in Raphanus sativus, rate 100 ppm, read-out: % mortality (obs)): 33%
mortality at 1000 ppm ([1]; Myzus persicae, in Raphanus sativus, rate 1000 ppm, read-out: % mortality (obs)): 65%
mortality at 10 ppm ([2]; Aphis gossypii, rate 10 ppm, read-out: % mortality (obs)): 23%
mortality at 100 ppm ([2]; Aphis gossypii, rate 100 ppm, read-out: % mortality (obs)): 34%
mortality at 1000 ppm ([2]; Aphis gossypii, rate 1000 ppm, read-out: % mortality (obs)): 28%
mortality at 10 ppm ([3]; Bemisia argentifolii, in Gossypium hirsutum, rate 10 ppm, read-out: % mortality (obs)): 1%
mortality at 100 ppm ([3]; Bemisia argentifolii, in Gossypium hirsutum, rate 100 ppm, read-out: % mortality (obs)): 2%
mortality at 1000 ppm ([3]; Bemisia argentifolii, in Gossypium hirsutum, rate 1000 ppm, read-out: % mortality (obs)): 2%
mortality at 200 ppm ([4]; Frankliniella occidentalis, 168 h, rate 200 ppm, read-out: % mortality (obs)): 70%
mortality at 500 ppm ([4]; Frankliniella occidentalis, 168 h, rate 500 ppm, read-out: % mortality (obs)): 80%
mortality at 1000 ppm ([4]; Frankliniella occidentalis, 168 h, rate 1000 ppm, read-out: % mortality (obs)): 70%
mortality at 200 ppm ([5]; rate 200 ppm, read-out: % mortality (obs)): 4%
mortality at 500 ppm ([5]; rate 500 ppm, read-out: % mortality (obs)): 8%
mortality at 1000 ppm ([5]; rate 1000 ppm, read-out: % mortality (obs)): 8%
mortality at 10 ppm ([6]; Empoasca fabae, rate 10 ppm, read-out: % mortality (obs)): 7%
mortality at 100 ppm ([6]; Empoasca fabae, rate 100 ppm, read-out: % mortality (obs)): 0%
mortality at 1000 ppm ([6]; Empoasca fabae, rate 1000 ppm, read-out: % mortality (obs)): 0%

CCN(Cc1ccc(Cl)nc1)/C(=C/[N+](=O)[O-])NC [Nitenpyram]
% mortality (obs) ([1]; rate 0.2 ppm): 7%
% mortality (obs) ([1]; rate 0.4 ppm): 17%
% mortality (obs) ([1]; rate 0.6 ppm): 40%
% mortality (obs) ([2]; rate 0.2 ppm): 29%
% mortality (obs) ([2]; rate 0.4 ppm): 49%
% mortality (obs) ([2]; rate 0.6 ppm): 71%
% mortality (obs) ([3]; rate 20 ppm): 53%
% mortality (obs) ([3]; rate 30 ppm): 84%
% mortality (obs) ([3]; rate 40 ppm): 85%
% mortality (obs) ([4]; rate 5 ppm): 20%
% mortality (obs) ([4]; rate 50 ppm): 50%
% mortality (obs) ([4]; rate 500 ppm): 80%
% mortality (obs) ([5]; rate 0.1 ppm): 27%
% mortality (obs) ([5]; rate 0.2 ppm): 100%
% mortality (obs) ([5]; rate 0.3 ppm): 100%
% mortality (obs) ([6]; rate 0.3 ppm): 7%
% mortality (obs) ([6]; rate 0.4 ppm): 73%
% mortality (obs) ([6]; rate 0.5 ppm): 33%

Pymetrozine
% mortality (obs) ([1]; rate 0.1 ppm): 13%
% mortality (obs) ([1]; rate 0.5 ppm): 41%
% mortality (obs) ([1]; rate 2 ppm): 79%
% mortality (obs) ([2]; rate 0.1 ppm): 22%
% mortality (obs) ([2]; rate 0.5 ppm): 38%
% mortality (obs) ([2]; rate 2 ppm): 62%
% mortality (obs) ([3]; rate 10 ppm): 3%
% mortality (obs) ([3]; rate 100 ppm): 7%
% mortality (obs) ([3]; rate 1000 ppm): 52%
% mortality (obs) ([4]; rate 10 ppm): 100%
% mortality (obs) ([4]; rate 100 ppm): 100%
% mortality (obs) ([4]; rate 1000 ppm): 100%
% mortality (obs) ([5]; rate 2 ppm): 51%
% mortality (obs) ([5]; rate 10 ppm): 29%
% mortality (obs) ([5]; rate 30 ppm): 89%
% mortality (obs) ([6]; rate 2 ppm): 0%
% mortality (obs) ([6]; rate 15 ppm): 13%
% mortality (obs) ([6]; rate 200 ppm): 60%
